The NIST ThermoML archive (doi:10.1021/je300938w)

Tests used:
[1] = wn = mass fraction of the nth substance listed; settings: 101 kPa, Liquid; for viscosity: Concentric cylinders viscometry; for mass density: Vibrating tube method
[2] = refractive index (Na D-line) (dimensionless); wn = mass fraction of the nth substance listed; settings: 101 kPa, Liquid, Standard Abbe refractometry

OCCNCCO [diethanolamine] + O
Settings	mass density, [1] [kg/m3]	refractive index, [2]	viscosity, [1] [mPa·s]
298.15 K, w1 = 0.05	1003.46	1.3394	1.059
298.15 K, w1 = 0.1	1009.09	1.34654	1.27
298.15 K, w1 = 0.15	1014.94	1.35439	1.503
298.15 K, w1 = 0.2	1020.92	1.36184	1.893
298.15 K, w1 = 0.25	1027.11	1.37017	2.376
303.15 K, w1 = 0.05	1001.98	1.33875	0.9498
303.15 K, w1 = 0.1	1007.53	1.34585	1.129
303.15 K, w1 = 0.15	1013.27	1.35368	1.319
303.15 K, w1 = 0.2	1019.14	1.36108	1.649
303.15 K, w1 = 0.25	1025.19	1.36935	2.05
308.15 K, w1 = 0.05	1000.3	1.33801	0.8569
308.15 K, w1 = 0.1	1005.77	1.34511	1.013
308.15 K, w1 = 0.15	1011.42	1.35288	1.174
308.15 K, w1 = 0.2	1017.18	1.36028	1.455
308.15 K, w1 = 0.25	1023.11	1.36847	1.795
313.15 K, w1 = 0.05	998.43	1.3372	0.7792
313.15 K, w1 = 0.1	1003.83	1.34427	0.9142
313.15 K, w1 = 0.15	1009.39	1.35208	1.051
313.15 K, w1 = 0.2	1015.05	1.35939	1.295
313.15 K, w1 = 0.25	1020.89	1.36756	1.585
318.15 K, w1 = 0.05	996.373	1.33633	0.7137
318.15 K, w1 = 0.1	1001.71	1.3434	0.8307
318.15 K, w1 = 0.15	1007.2	1.35122	0.948
318.15 K, w1 = 0.2	1012.78	1.35862	1.161
318.15 K, w1 = 0.25	1018.51	1.36659	1.411
323.15 K, w1 = 0.05	994.141	1.33539	0.653
323.15 K, w1 = 0.1	999.439	1.34245	0.7593
323.15 K, w1 = 0.15	1004.85	1.35028	0.8599
323.15 K, w1 = 0.2	1010.35	1.35777	1.048
323.15 K, w1 = 0.25	1016	1.36557	1.266
328.15 K, w1 = 0.05	991.746	1.33442	0.6017
328.15 K, w1 = 0.1	996.992	1.34148	0.6969
328.15 K, w1 = 0.15	1002.36	1.34935	0.7836
328.15 K, w1 = 0.2	1007.78	1.3568	0.9519
328.15 K, w1 = 0.25	1013.36	1.36453	1.141
333.15 K, w1 = 0.05	989.2	1.3334	0.5596
333.15 K, w1 = 0.1	994.401	1.34044	0.643
333.15 K, w1 = 0.15	999.713	1.3485	0.7178
333.15 K, w1 = 0.2	1005.07	1.35582	0.8673
333.15 K, w1 = 0.25	1010.55	1.36354	1.037
338.15 K, w1 = 0.05	986.501	1.33234	0.5269
338.15 K, w1 = 0.1	991.668	1.33938	0.5932
338.15 K, w1 = 0.15	996.929	1.34755	0.6619
338.15 K, w1 = 0.2	1002.23	1.3547	0.799
338.15 K, w1 = 0.25	1007.44	1.36244	0.9543
343.15 K, w1 = 0.05	983.659	1.33122	0.5002
343.15 K, w1 = 0.1	988.796	1.3382	0.5534
343.15 K, w1 = 0.15	993.878	1.34633	0.6185
343.15 K, w1 = 0.2	999.25	1.35356	0.7459
343.15 K, w1 = 0.25	1004.41	1.3614	0.8922

CC(O)CN(CC(C)O)CC(C)O (stereo not given) [triisopropanolamine] + O
Settings	mass density, [1] [kg/m3]	refractive index, [2]	viscosity, [1] [mPa·s]
298.15 K, w1 = 0.05	1000.88	1.34069	1.083
298.15 K, w1 = 0.1	1004.3	1.34815	1.36
298.15 K, w1 = 0.15	1007.92	1.35565	1.71
298.15 K, w1 = 0.2	1011.66	1.36317	2.173
298.15 K, w1 = 0.25	1015.04	1.37063	2.857
303.15 K, w1 = 0.05	999.387	1.34001	0.9842
303.15 K, w1 = 0.1	1002.67	1.34737	1.198
303.15 K, w1 = 0.15	1006.1	1.35487	1.486
303.15 K, w1 = 0.2	1009.61	1.36227	1.859
303.15 K, w1 = 0.25	1012.73	1.36979	2.396
308.15 K, w1 = 0.05	997.679	1.33922	0.8883
308.15 K, w1 = 0.1	1000.83	1.34656	1.068
308.15 K, w1 = 0.15	1004.08	1.35393	1.309
308.15 K, w1 = 0.2	1007.37	1.36133	1.612
308.15 K, w1 = 0.25	1010.26	1.36869	2.051
313.15 K, w1 = 0.05	995.768	1.33853	0.8034
313.15 K, w1 = 0.1	998.785	1.34572	0.9574
313.15 K, w1 = 0.15	1001.88	1.35309	1.159
313.15 K, w1 = 0.2	1004.97	1.36039	1.418
313.15 K, w1 = 0.25	1007.64	1.36764	1.774
318.15 K, w1 = 0.05	993.671	1.33769	0.7315
318.15 K, w1 = 0.1	996.561	1.34484	0.8658
318.15 K, w1 = 0.15	999.498	1.35209	1.038
318.15 K, w1 = 0.2	1002.41	1.35933	1.257
318.15 K, w1 = 0.25	1004.88	1.36653	1.553
323.15 K, w1 = 0.05	991.401	1.3368	0.6696
323.15 K, w1 = 0.1	994.168	1.34387	0.7874
323.15 K, w1 = 0.15	996.957	1.35104	0.9361
323.15 K, w1 = 0.2	999.698	1.35818	1.125
323.15 K, w1 = 0.25	1002	1.36532	1.373
328.15 K, w1 = 0.05	988.96	1.33565	0.6164
328.15 K, w1 = 0.1	991.613	1.34287	0.7208
328.15 K, w1 = 0.15	994.263	1.34999	0.8494
328.15 K, w1 = 0.2	996.847	1.35718	1.013
328.15 K, w1 = 0.25	998.98	1.36417	1.224
333.15 K, w1 = 0.05	986.362	1.33481	0.5719
333.15 K, w1 = 0.1	988.905	1.34176	0.6624
333.15 K, w1 = 0.15	991.422	1.34883	0.7754
333.15 K, w1 = 0.2	993.857	1.35587	0.9186
333.15 K, w1 = 0.25	995.844	1.36291	1.104
338.15 K, w1 = 0.05	983.585	1.3337	0.535
338.15 K, w1 = 0.1	985.961	1.34063	0.6134
338.15 K, w1 = 0.15	988.426	1.34762	0.7114
338.15 K, w1 = 0.2	990.739	1.35461	0.8381
338.15 K, w1 = 0.25	992.589	1.36154	0.9991
343.15 K, w1 = 0.05	980.297	1.33265	0.5064
343.15 K, w1 = 0.1	982.83	1.33943	0.57
343.15 K, w1 = 0.15	985.312	1.34641	0.6596
343.15 K, w1 = 0.2	987.395	1.35319	0.7694
343.15 K, w1 = 0.25	989.222	1.36012	0.9113
